In patent publication US20070254312A1, “Protein Kinase Inhibitors and Methods for Identiying Same” (priority 2004, published 2007):
Like-named read-outs stand apart in the source and are kept apart here. Starred links: 1 amine or outer side, 2 acyl side, 3 side chain; linkers in the order of their positions; H or OH if unused. Non-standard residues stand in square brackets, D forms with d. Residues, ends and D or L forms follow the SMILES beside them. *: point of attachment. Benzoyl(4-(pyrrol-1-yl)) = O=C(c1ccc(-n2cccc2)cc1)*; Cysteamide = C(CS[*:3])N[*:1]; Dap = NC[C@H](N)C(=O)O

What was measured:
PKCα [1] = target: T1, PKCα (Homo sapiens, UniProt P17252); assay: Protein Kinase Cα radioactive assay, peptide substrate Ac-Ser-Phe-Arg-Arg-Arg-NH2 (Example 1); format: biochemical; parameters: purchased Pan Vera; details: peptide substrate; read-out: PKCα inhibitory potency IC50
Experimental: Protein Kinase C Assay (general). The peptides […] (for PKC α, β and γ) and acetyl-[…] (for PKC ε and ζ) were used as substrates. […] Total reaction volume was 50 μL. […] Following an additional 5 min incubation at ambient temperature, 75 μL from each reaction well was transferred into each well of a Unifilter (P81 cellulose phosphate paper) assay plate and washed four times with 0.1% phosphoric acid in water. […] IC50 values were calculated using GraFit (Erithacus Software Limited) and Ki values were calculated using Enzyme Kinetics, SigmaPlot (SPSS Inc.) […] An analogous protocol was employed for peptide 4 versus variable [[…]]. […] An analogous protocol was employed for peptide 4 versus variable [ATP]. Protein Kinase Cα Assay (Ki determination for peptide 6 versus variable […] substrate). […] The reaction was initiated as described above. […] Following an additional 5 min incubation at ambient temperature, 75 μL from each reaction well was transferred into each well of a Unifilter (P81 cellulose phosphate paper) assay plate and washed four times with 0.1% phosphoric acid in water. […] IC50 values were calculated using GraFit (Erithacus Software Limited) and Ki values were calculated using Enzyme Kinetics, SigmaPlot (SPSS Inc.)

PKCε = target: T2, PKCε (Homo sapiens, UniProt Q02156); parameters: purchased Panvera; details: cited from earlier work
T2 sequence (Q02156 1-737): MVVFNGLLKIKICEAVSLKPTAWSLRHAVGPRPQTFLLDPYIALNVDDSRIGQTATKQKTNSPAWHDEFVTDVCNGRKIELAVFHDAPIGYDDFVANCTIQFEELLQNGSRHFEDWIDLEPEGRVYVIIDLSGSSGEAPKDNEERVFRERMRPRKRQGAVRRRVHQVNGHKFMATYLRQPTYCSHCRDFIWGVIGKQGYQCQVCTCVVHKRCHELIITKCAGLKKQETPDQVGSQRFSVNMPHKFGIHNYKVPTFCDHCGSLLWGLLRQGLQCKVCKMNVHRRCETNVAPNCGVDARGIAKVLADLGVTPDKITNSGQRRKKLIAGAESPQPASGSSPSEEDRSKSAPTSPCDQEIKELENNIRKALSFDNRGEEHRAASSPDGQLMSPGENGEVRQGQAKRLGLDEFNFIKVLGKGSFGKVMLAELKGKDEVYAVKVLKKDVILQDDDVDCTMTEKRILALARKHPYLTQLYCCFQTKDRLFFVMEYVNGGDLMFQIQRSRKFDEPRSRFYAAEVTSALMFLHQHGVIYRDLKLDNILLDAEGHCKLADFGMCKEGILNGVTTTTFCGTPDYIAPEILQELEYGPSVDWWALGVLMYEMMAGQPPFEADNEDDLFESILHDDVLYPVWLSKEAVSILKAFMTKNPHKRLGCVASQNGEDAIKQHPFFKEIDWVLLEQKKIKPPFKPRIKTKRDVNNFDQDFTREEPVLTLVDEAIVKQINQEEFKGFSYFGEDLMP

PKCγ = PKCγ (Homo sapiens, UniProt P05129); parameters: purchased Panvera; details: cited from earlier work
PKCα [2] = target: T1, PKCα; details: cited from earlier work
PKCη = PKCη (Homo sapiens, UniProt P24723); parameters: purchased Panvera; details: cited from earlier work
PKC β1 = PKC β1 (Homo sapiens, UniProt P05771); details: cited from earlier work
PKCζ = target: T3, PKCζ (Homo sapiens, UniProt Q05513); parameters: purchased Panvera; details: cited from earlier work
T3 sequence (Q05513 1-592): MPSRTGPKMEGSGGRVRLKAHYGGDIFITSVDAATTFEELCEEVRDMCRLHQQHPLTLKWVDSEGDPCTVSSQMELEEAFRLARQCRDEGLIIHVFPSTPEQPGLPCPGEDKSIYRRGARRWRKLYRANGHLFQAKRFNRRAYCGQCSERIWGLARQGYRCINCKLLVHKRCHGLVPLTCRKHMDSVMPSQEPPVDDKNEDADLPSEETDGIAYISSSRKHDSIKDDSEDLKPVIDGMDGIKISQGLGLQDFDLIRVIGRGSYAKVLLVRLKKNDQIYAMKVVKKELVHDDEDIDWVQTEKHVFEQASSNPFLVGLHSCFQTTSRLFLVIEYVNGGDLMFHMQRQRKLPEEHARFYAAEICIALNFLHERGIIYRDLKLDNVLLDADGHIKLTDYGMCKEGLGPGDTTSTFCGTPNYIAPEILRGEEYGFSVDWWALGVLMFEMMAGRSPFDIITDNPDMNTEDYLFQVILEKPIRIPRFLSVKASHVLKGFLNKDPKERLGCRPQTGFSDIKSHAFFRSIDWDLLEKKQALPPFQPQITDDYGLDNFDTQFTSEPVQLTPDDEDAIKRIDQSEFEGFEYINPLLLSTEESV

PKCδ = PKCδ (Homo sapiens, UniProt Q05655); parameters: purchased Panvera; details: literature values; relative to most potently inhibited isoform (=1); cited from earlier work
Chain of PKCδ (Q05655 whole entry, canonical isoform): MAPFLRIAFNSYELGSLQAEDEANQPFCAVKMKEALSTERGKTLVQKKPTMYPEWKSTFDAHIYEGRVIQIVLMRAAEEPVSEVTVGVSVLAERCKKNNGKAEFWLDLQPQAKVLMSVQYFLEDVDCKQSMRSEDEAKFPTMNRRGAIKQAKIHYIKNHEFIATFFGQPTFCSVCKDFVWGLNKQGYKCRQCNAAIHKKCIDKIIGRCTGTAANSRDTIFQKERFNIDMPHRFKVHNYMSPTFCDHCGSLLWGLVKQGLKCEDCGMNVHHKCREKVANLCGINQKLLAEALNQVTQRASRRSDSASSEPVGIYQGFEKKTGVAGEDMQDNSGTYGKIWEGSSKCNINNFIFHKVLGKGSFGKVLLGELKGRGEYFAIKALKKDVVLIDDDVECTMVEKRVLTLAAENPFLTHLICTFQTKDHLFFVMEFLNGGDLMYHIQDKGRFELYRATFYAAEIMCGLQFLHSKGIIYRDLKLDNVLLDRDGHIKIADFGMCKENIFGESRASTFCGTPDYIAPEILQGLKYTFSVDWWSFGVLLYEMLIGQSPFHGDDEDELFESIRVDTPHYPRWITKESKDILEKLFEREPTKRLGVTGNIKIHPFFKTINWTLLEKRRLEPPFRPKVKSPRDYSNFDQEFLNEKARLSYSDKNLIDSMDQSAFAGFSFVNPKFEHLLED

Chain of PKC β1 (P05771 whole entry): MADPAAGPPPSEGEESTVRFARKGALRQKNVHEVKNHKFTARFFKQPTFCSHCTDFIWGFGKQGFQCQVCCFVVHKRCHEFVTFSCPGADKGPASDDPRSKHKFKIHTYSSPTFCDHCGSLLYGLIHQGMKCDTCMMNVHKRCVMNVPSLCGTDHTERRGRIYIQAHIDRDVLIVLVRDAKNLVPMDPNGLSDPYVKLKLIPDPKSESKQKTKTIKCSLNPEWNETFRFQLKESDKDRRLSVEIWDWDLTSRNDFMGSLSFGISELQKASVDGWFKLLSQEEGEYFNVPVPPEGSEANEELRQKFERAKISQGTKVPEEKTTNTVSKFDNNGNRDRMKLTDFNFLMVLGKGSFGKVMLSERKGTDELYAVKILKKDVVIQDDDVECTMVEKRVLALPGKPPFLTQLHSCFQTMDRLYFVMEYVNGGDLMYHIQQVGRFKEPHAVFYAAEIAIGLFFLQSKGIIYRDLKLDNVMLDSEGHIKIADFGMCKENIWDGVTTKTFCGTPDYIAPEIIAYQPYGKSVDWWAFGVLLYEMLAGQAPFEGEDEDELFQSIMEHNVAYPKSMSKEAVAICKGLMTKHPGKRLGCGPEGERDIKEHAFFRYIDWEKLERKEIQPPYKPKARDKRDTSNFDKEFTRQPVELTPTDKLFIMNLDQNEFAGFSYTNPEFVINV
Chain of PKCη (P24723 whole entry): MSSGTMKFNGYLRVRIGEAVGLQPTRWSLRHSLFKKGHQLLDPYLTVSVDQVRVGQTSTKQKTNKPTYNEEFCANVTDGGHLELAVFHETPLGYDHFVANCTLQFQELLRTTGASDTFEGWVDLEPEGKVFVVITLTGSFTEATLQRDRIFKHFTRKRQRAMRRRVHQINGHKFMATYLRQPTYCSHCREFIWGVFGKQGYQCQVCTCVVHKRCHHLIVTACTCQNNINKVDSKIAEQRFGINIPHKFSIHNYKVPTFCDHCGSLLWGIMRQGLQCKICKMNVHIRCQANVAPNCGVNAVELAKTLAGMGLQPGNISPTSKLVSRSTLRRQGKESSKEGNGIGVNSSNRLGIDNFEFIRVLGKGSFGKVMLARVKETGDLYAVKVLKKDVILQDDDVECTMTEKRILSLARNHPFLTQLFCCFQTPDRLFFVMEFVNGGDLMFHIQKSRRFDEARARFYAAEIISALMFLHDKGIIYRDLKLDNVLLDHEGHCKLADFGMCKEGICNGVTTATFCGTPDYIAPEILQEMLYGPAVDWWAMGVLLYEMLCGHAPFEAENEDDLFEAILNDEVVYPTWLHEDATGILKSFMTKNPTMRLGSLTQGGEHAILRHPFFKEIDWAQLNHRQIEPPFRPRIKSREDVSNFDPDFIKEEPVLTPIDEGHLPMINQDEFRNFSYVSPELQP

IC50 (PKCα [1])	SMILES	Fold selectivity (IC50), PKC ε (PKCε)	Fold selectivity (IC50), PKC γ (PKCγ)	Fold selectivity (IC50), PKC α (PKCα [2])	Fold selectivity (IC50), PKC η (PKCη)	Fold selectivity (IC50), PKC β1 (PKC β1)	Fold selectivity (IC50), PKC β1 (PKC β1; listed as rottlerin)	Fold selectivity (IC50), PKC ζ (PKCζ)	Fold selectivity (IC50), PKC δ (PKCδ)
5.7 ± 0.4 µM	CC(=O)N[C@@H](C)C(=O)N[C@@H](CCCNC(=N)N)C(=O)N[C@@H](CCCNC(=N)N)C(=O)NCC(=O)N[C@@H](CNC(=O)c1ccc(-n2cccc2)cc1)C(=O)N[C@@H](CC(C)C)C(=O)N[C@@H](CCCNC(=N)N)C(=O)N[C@@H](CCC(N)=O)C(=O)N[C@@H](C)C(=O)NCCS [Compound 2] (Ac-ARRG[Dap](Benzoyl(4-(pyrrol-1-yl)))LRQA-Cysteamide)	–	–	–	–	–	–	–	–
–	CC(=O)c1c(O)c(C)c(O)c(Cc2c(O)c3c(c(C(=O)/C=C/c4ccccc4)c2O)OC(C)(C)C=C3)c1O [Rottlerin, rottlerin]	33 fold	13 fold	10 fold	27 fold	14 fold	10 fold	33 fold	1 fold
